Laboratory results as given in US20070186288A1, “Zebrafish models of acute myelogenous leukemia” (priority 2005, published 2007).
“Also recorded” adds a separate entry of the source. Like-named read-outs stand apart in the source and are kept apart here.

Key:
[1] = test system: AML1-ETO phenotype in Tg(hsp:AML1-ETO) zebrafish embryos; type: in vivo; conditions: for percentage of AML1-ETO-expressing embryos without circulating blood: 500 μM morpholino solution injected into 1-cell stage embryos, heat treated at 4, 16, 24 hpf, scored at 44 hpf, non-injected control 90.2%
Description: The Petri dishes containing zebrafish embryos were transferred from the growth temperature of 23-28.5° C. to a 37-42° C. incubator and incubated for 1 hour before returning them back to the normal temperature. The heat treatment may be repeated three to four times over 12-hour intervals as specified below. The percentages of embryos with phenotype were scored by visual inspection of the loss of circulating blood in the embryos after 40 hpf.
The morpholino antisense oligonucleotides hAML1-MO (5′-[…]; SEQ ID NO:3), which targets the translation start codon of human AML1, and zTIS11b-MO (5′-[…]; SEQ ID NO:4), which targets the splice donor site of zebrafish TIS11b transcripts, were obtained from Gene-Tools, LLC. For microinjection, 500 μM hAML1-MO or 200 μM zTIS11b-MO in 0.3× Danieau's buffer (17 mM NaCl, 2 mM KCl, 0.12 mM MgSO4, 1.8 mM Ca(NO3)2 and 1.5 mM HEPES, pH 7.6) were prepared and injected as described (Nasevicius et al., Nat. Genet. 26:216-220, 2000).
In AML1-ETO-expressing fish, the absence of circulating cells and the accumulation of non-circulating hematopoietic cells in the ICM are readily detected by eye. Therefore, circulation may be a simple surrogate phenotype for detecting the presence or absence of the AML1-ETO phenotype. To confirm that the loss-of-circulation phenotype is dependent on the inducible expression of AML1-ETO in the transgenic zebrafish, we tested whether this phenotype can be rescued by blocking AML1-ETO expression using an antisense morpholino oligonucleotide (hAML1-MO) complementary to the translation start site of the human AML1-ETO mRNA. Homogeneous transgenic embryo clutches were obtained from crosses between homozygous Tg(hsp:AML1-ETO) and wild-type fish. These embryos were heat treated at 4, 16, and 24 hpf, and were then scored at 44 hpf. […] On the other hand, in the heat-treated Tg(hsp:AML1-ETO) fish embryos, most of the blood cells accumulate in the ICM, especially at the location close to the end of the yolk extension, and fail to enter circulation. However, injection of HAML1-MO into 1-cell stage embryos restores the circulation in the transgenic embryos.
Zebrafish embryos readily absorb small molecules from the surrounding medium, rendering them a powerful tool to assess pharmacological efficacy (Peterson et al., Methods Cell. Biol. 76:569-591, 2004; Zon et al., Nat. Rev. Drug Discov. 4:35-44, 2005). […] While ATRA is generally not very effective in differentiating t(8;21) leukemic cells, complete remission of a patient with t(8;21) translocation has been reported (Chen et al., Chin. Med. J. (Engl). 115:58-61, 2002). We tested the efficacy of ATRA in reversing the zebrafish AML1-ETO phenotype. In this experiment, we heat-shocked the embryos three times instead of four times at 37° C. in order to reduce the phenotypic penetrance in the Tg(hsp:AML1-ETO) fish embryos to around 80%. Meanwhile, ATRA was added at 24 hpf.
The upregulation of TIS11b had been hypothesized to contribute to AML pathogenesis, but this hypothesis had not been tested. To elucidate the role of TIS11b in the AML1-ETO phenotype, we knocked down TIS11b by injecting an antisense morpholino oligonucleotide complementary to the […] of the zebrafish TIS11b gene (zTIS11b-MO).

[2] = test system: hematopoietic cells of Tg(hsp:AML1-ETO) zebrafish embryos; test: Cytology (Wright-Giemsa) of blood extracted from Tg(hsp:AML1-ETO) embryos; type: in vivo; conditions: 200 μM morpholino solution injected; mild heat treatment
Description: Blood cells were collected from anesthetized wild-type and AML1-ETO embryos at 40 hpf by transferring live fish to phosphate buffered saline containing 50 U/ml heparin, 1% bovine serum albumin, and 0.006% tricaine. Tails were excised posterior to the yolk extension (at approximately the site of the posterior ICM) using a scalpel. Blood cells were extruded from the site of excision using the blunt edge of the scalpel and collected using a micropipette.
For cytological analyses, blood cells collected from the zebrafish embryos were transferred onto glass slides by cytospin and stained by Protocol® Wright-Giemsa stain (Fisher Diagnostics) following manufacturer's instruction. To label red blood cells in the zebrafish embryos, whole-mount cytochemistry staining with […] was performed as previously described (Weinstein et al., Development 123:303-309, 1996).

“zTIS11b-MO: morpholino antisense oligonucleotide 5′-ACTTTTCTCCATACCTTGTTGTTGA (SEQ ID NO:4), targets the splice donor site of zebrafish TIS11b transcripts (all phosphorodiamidate morpholino (PMO))” was tested, and the “percentage of injected Tg(hsp:AML1-ETO) embryos exhibiting the AML1-ETO (lack of circulation) phenotype” value ([1]; 200 μM morpholino solution injected, mild heat treatment, uninjected less than 30%) was 98% and the “blast cells in blood of injected Tg(hsp:AML1-ETO) embryos by cytological analysis” value [2] was “accumulation of hematopoietic blast cells; also recorded: abundant immature blast-like cells”.

In the case of `CC1=C(/C=C/C(C)=C/C=C/C(C)=C/C(=O)O)C(C)(C)CCC1` [ATRA, all-trans retinoic acid], the “percentage of embryos possessing circulation” value ([1]; 10 pM added at 24 hpf, three 1-hour 37° C. heat treatments at 4, 16, 24 hpf, scored at 40 hpf, vehicle 20%, p=0.0085) is reported as 36% and the “degree of rescue at higher concentrations” value ([1]; concentrations above 10 pM (range tested 1 pM to 1 nM)) is reported as “did not increase”.

For “hAML1-MO: morpholino antisense oligonucleotide 5′-CTGGCATCTACGGGGATACGCATCA (SEQ ID NO:3), targets the translation start codon of human AML1 (all phosphorodiamidate morpholino (PMO); listed as Homo sapiens)”, the “percentage of AML1-ETO-expressing embryos without circulating blood” value [1] was “less than 10%” and the “percentage of AML1-ETO-expressing embryos without circulating blood” value ([1]; listed as HAML1-MO) was 6.7%.
